# Key:
# [1] = system: phospho-p90RSK in A375 cell line; assay: A375 cell assay (phospho-p90RSK sandwich ELISA); type: cell-based; conditions: Homo sapiens, A-375; inhibition of phospho-p90RSK, A375 cells (BRAF V600E), 4 hours incubation
# Experimental: The cells in the logarithmic growth phase were taken and the trypan blue exclusion method was used to detect the cell viability to ensure that the cell viability is above 90%. The cell concentration was adjusted, and 150 μL cell suspension was added to a 96-well plate, which was incubated at 37° C., 5% CO2 for 16 h. The maximum concentration of the drug to be tested was 10 μM, which was diluted into 10 concentrations with a 3-fold gradient dilution, 50 μL drug solution was added to each well of the 96-well plate in duplicate, and incubation was continued for 4 hours. After removing the medium, 0.2 ml cell lysis solution and […] were added to each well, which was incubated on ice for 30 mm, and centrifuged for 10 min at 4° C. to afford cell lysis solution. PathScan®Phospho-p90RSK (Thr359) Sandwich ELISA Kit (CST, catalog No. 91959C) was used for detecting the inhibitory rate of the compounds of the present disclosure on phospho-p90RSK, to each well 100 μL cell lysis solution was added, and incubated at 4° C. overnight. The plate was washed, added with 100 μL reconstituted Detection Antibody, and incubated at 37° C. for 1 h. The plate was washed, added with 100 μL reconstituted HRP-Linked secondary antibody, and incubated at 37° C. for 30 min. The plate was washed, added with 100 μL TMB Substrate, and after incubating at 25° C. for 30 min, 100 μL STOP Solution was added, and EnVision (Perkin Elmer 2104) was used to detect fluorescence value, and inhibitory rates under the effect of different concentrations of compounds were calculated. The calculation of IC50 was carried out using Prism Graphpad 8.0, software.
# Phospho-p90RSK cell assay was conducted in A375 cell line, which has human malignant melanoma with BRAF V600E mutation that upregulates the MAPK pathway, and therefore has increased endogenous levels of phospho-ERK and phospho-p90RSK.
# ERK2 kinase = biological target: T1, ERK2 kinase (Homo sapiens, UniProt P28482); assay: ERK2 kinase inhibition (ADP-Glo); type: biochemical; conditions: ADP-Glo kit, 20 minutes reaction at room temperature
# T1 construct: purchased Promega V1961
# T1 sequence (P28482 whole entry): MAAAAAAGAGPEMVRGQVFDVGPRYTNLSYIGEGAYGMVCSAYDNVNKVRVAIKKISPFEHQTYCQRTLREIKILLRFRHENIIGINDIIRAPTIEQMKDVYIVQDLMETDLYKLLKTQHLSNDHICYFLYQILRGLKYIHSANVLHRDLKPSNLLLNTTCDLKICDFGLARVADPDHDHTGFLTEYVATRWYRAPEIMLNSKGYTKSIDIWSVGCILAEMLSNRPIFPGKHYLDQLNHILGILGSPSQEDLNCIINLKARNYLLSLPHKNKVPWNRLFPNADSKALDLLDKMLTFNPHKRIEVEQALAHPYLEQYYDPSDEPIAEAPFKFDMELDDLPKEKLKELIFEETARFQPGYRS
# Excerpt: ERK2 kinase (Promega, catalog No. V1961), RET (V804M), Active (Signalchem, catalog No, R02-12GG), ADP-Glo™ kit (Promega, catalog No. V9102), GDC-0994 (MCE, catalog No. HY-15947), ATP (Promega, catalog No. V910B), DMSO (Sigma, catalog No. D8418), DTT (Invitrogen, catalog No. P2325), 384-well plate (Greiner, catalog No. 784075), polypropylene 384-well plate (Labcyte, catalog No. P-05525-BC), polypropylene 96-well plate (Nunc, catalog No. 249944), plate shaker (Thermo, catalog No. 4625-1 CECN/THZ Q), centrifuge (Eppendorf, catalog No. 5810R), multilabel ELISA reader Envision 2104 multi-label Reader (PerkinElmer, catalog No. 74785), Echo acoustic dispenser (Labcyte, catalog No. 550).
# Compound formulation: The test compounds were dissolved in DMSO to prepare a 10 mM stock solution. Then, the stock solution was diluted 10 times with a 3-fold gradient. When addition, 10-fold dilution was made with buffer solution.
# ERK2 kinase assay: In 1× kinase buffer solution, ERK2 kinase was mixed with pre-formulated and diluted compounds of different concentrations for 10 minutes in duplicate for each concentration. The corresponding substrate and ATP were added thereto, and reacted at room temperature for 20 minutes (both a negative and a positive control were set, wherein the negative is blank control, and the positive control is GDC-0994). Detection reagent was added after the reaction is complete (reagent in ADP-Glo™ kit), and after 40 minutes of incubation at room temperature, Envision 2104 multi-label Reader ELISA reader was used for detection of enzyme activities under the presence of compounds of the present disclosure with different concentrations, and the inhibitory activities of different concentrations of compounds on enzyme activity were calculated. GraphPad Prism 6.0 software was used for data analysis, nonlinear curve regression was used to fit the data to get the dose-response curve, thereby IC50 values were calculated.
SMILES,IC50 [1] [nM],IC50 (ERK2 kinase) [nM]
"[2H]C([2H])(c1ccc(F)c(F)c1)N1C(=O)c2nc(-c3nc(Nc4ccnn4C([2H])([2H])[2H])ncc3C)cn2C[C@@H]1COC [Compound I-3, (R)-7-((3,4-difluorophenyl)methyl-d2)-6-(methoxymethyl)-2-(5-methyl-2-((1-(methyl-d3)-1H-pyrazol-5-yl)amino)pyrimidin-4-yl)-6,7-dihydroimidazo[1,2-a]pyrazin-8(5H)-one]",34.6,3.31
"COC[C@H]1Cn2cc(-c3nc(Nc4ccnn4C)ncc3C)nc2C(=O)N1Cc1ccc(F)c(F)c1 [AZD0364, (R)-7-(3,4-difluorobenzyl)-6-(methoxymethyl)-2-(5-methyl-2-((1-methyl-1H-pyrazol-5-yl)amino)pyrimidin-4-yl)-6,7-dihydroimidazo[1,2-a]pyrazin-8(5H)-one, reference compound]",38.7,4.01

# Compounds with a lower IC50 [1], results first:
IC50 [1] [nM],IC50 (ERK2 kinase) [nM],SMILES
30.1,,"[2H]C([2H])([2H])n1nccc1Nc1ncc(C)c(-c2cn3c(n2)C(=O)N(Cc2ccc(F)c(F)c2)[C@@H](COC)C3)n1 [Compound I-1, (R)-7-(3,4-difluorobenzyl)-6-(methoxymethyl)-2-(5-methyl-2-((1-(methyl-d3)-1H-pyrazol-5-yl)amino)pyrimidin-4-yl)-6,7-dihydroimidazo[1,2-a]pyrazin-8(5H)-one]"
29.6,2.75,"[2H]C([2H])([2H])OC[C@H]1Cn2cc(-c3nc(Nc4ccnn4C([2H])([2H])[2H])ncc3C)nc2C(=O)N1Cc1ccc(F)c(F)c1 [Compound I-5-1, (R)-7-(3,4-difluorobenzyl)-6-((methoxy-d3)-methyl)-2-(5-methyl-2-((1-(methyl-d3)-1H-pyrazol-5-yl)amino)pyrimidin-4-yl)-6,7-dihydroimidazo[1,2-a]pyrazin-8(5H)-one]"
24.9,3.09,"[2H]C([2H])([2H])OC[C@H]1Cn2cc(-c3nc(Nc4ccnn4C)ncc3C)nc2C(=O)N1Cc1ccc(F)c(F)c1 [Compound I-4-1, (R)-7-(3,4-difluorobenzyl)-6-((methoxy-d3)-methyl)-2-(5-methyl-2-((1-methyl-1H-pyrazol-5-yl)amino)pyrimidin-4-yl)-6,7-dihydroimidazo[1,2-a]pyrazin-8(5H)-one]"
